Patent US12508278B2, “Lipid nanoparticle compositions and methods of formulating the same” (ModernaTX, Inc., priority 2021, dated 2025)
Each block holds one compound with its values, some of them ahead of it.

Legend:
Format in all cases: physicochemical
[1] = IG (lipid-mRNA adduct impurity) in binary mixtures of RNA and Compound III, ion pair reversed phase HPLC; details: for level of IG compared to control binary mixtures: 1 mM agent; for initial rate of IG formation: 5 mM agent, Compound III binaries
Excerpt: To detect and quantify the amount of IG present in LNP formulations comprising polynucleotides and lipid, a protocol was developed (FIG. 2) that included (1) extraction of the polynucleotide molecules (e.g. precipitation, liquid: liquid extraction); (2) assessment of integrity (e.g. purity, length) of the isolated polynucleotides by known methods (e.g. fragment analyzer, gel electrophoresis); and (3) analysis of the isolated polynucleotides by HPLC.
(§1) RNA was extracted from the LNP formulation by precipitation in ammonium acetate in isopropanol; resuspended in water to target a final RNA concentration of 0.1 mg/mL; and assessed by fragment analyzer capillary electrophoresis and ion pair reversed phase HPLC (performed on a Thermo DNApac RP 100×2.1 mm column at 65° C., with mobile phases containing 50 mM dibutylammonium acetate and 100 mM triethylammonium acetate in water and acetonitrile). Elution with an acetonitrile gradient provided an RNA separation primarily driven by mRNA length and sensitive to any added hydrophobic elements. Two prominent peaks were apparent on the HPLC chromatogram (FIG. 2), including a “main peak” comprising non-adduct mRNA and an “IG” peak comprising mRNA with one or more covalent modifications. The mass fraction of RNA containing at least one lipid adduct was determined by integrating the area under the curve (AUC) of all RNA peaks (including products shorter than the full-length product, the full-length product, and the hydrophobic modified RNA) and taking the late-eluting region as an area percent of the total peak area.
Compound III was dissolved in ethanol at a concentration of 4 mg/mL, and the RNA diluted in sodium acetate buffer pH 5.5; the RNA and lipids were then mixed in 25% ethanol. Samples were held at 25° C., and the RNA was periodically extracted by precipitation in isopropanol and analyzed by ion pair reversed phase (FIGS. 5 and 6A, data marked by *).

[2] = IG in Compound III LNPs buffered with PBS or Tris
[3] = IG in binary mixtures of RNA and Compound VI, ion pair reversed phase HPLC; details: control binary mixture
Method: as §1
To determine if treatment with reducing agents or anti-oxidants confers reductions in the percentage of IG formed in binary mixtures of RNA and Compound VI, binary mixtures were prepared with RNA and Compound VI in which the RNA component was prepared with select reducing agents at 5 mM concentration and the percentage of IG in the resulting binary mixtures was quantified according to the protocol detailed in Example 1. The control binary mixtures of RNA and Compound VI contained IG at ˜55 percent after 1 day, ˜70 percent after 2 days, and ˜80 percent after 13 days. In contrast, treatment of binary mixtures of RNA and Compound VI with select reducing agents conferred IG at ˜45 percent after 1 day, ˜55% after 2 days, and ˜60-70% after 13 days (FIG. 17).

[4] = IG in Compound VI LNPs stored in PBS or Tris; details: 20 mM Tris, 8% sucrose, pH 8 vs 1xPBS pH 7.2, stored at 5 C

SMILES: CCCCCCCCCCCOC(=O)CCCCCN(CCO)CCCCCCCC(=O)OC(CCCCCCCC)CCCCCCCC [Compound III, heptadecan-9-yl 8-((2-hydroxyethyl)(6-oxo-6-(undecyloxy)hexyl)amino)octanoate]
IG formation over time ([1]; chromatographically purified Compound III, up to 99% purity, no detectable N-oxide): still formed IG over time
percentage of IG ([1]; control binary mixture (Example 6), stored at 25 C, after 1 day): ~15%
percentage of IG ([1]; control binary mixture (Example 6), stored at 25 C, after 3 days): ~35%
percentage of IG ([1]; control binary mixture (Example 6), stored at 25 C, after 7 days): ~40%
percentage of IG ([1]; control binary mixture (Example 11), 25 C, after 18 hours): ~20%
percentage of IG ([1]; control binary mixture without agent (Example 7), 25 C, after 18 hours): ~35%
percentage of IG ([1]; control binary mixture without agent (Example 7), after 13 days at 25 C): ~45%
percentage of IG ([1]; control binary mixture, Compound III not pre-treated (Example 5), after 0 days): ~10%
percentage of IG ([1]; control binary mixture, Compound III not pre-treated (Example 5), after 5 days): ~40%
percentage of IG ([1]; control binary mixture, Compound III not pre-treated (Example 5), after 25 days): ~45%
percentage of IG, Tris compared to PBS ([2]; 100 mM Tris-HCl pH 7.4 vs 1xPBS): lower
percentage of IG over time ([2]; buffered with Tris (100 mM Tris-HCl pH 7.4), stored at 5 C or 20 C): around 10%

SMILES: CCCCCCCCCN(CCCCCCCCC)CCN(CCCCCCCCC)CC(=O)N1CCN(C(=O)CN(CCCCCCCCC)CCCCCCCCC)CC1 [Compound VI]
percentage of IG ([3]; after 1 day): ~55%
percentage of IG ([3]; after 2 days): ~70%
percentage of IG ([3]; after 13 days): ~80%
percentage of IG, Tris compared to PBS [4]: lower

SMILES: Clc1ccc(C(c2ccc(Cl)cc2)C(Cl)(Cl)Cl)cc1 [DDT, dichlorodiphenyltrichloroethane]
level of IG compared to control binary mixtures ([1]; 25 C, after 18 hours): reduced levels of IG

SMILES: O[C@H](CS)[C@@H](O)CS [DTE, dithioerythritol]
level of IG compared to control binary mixtures ([1]; 25 C, after 18 hours): reduced levels of IG

SMILES: O=C(O)CCP(CCC(=O)O)CCC(=O)O [TCEP, tris(2-carboxyethyl)phosphine]
level of IG compared to control binary mixtures ([1]; 25 C, after 18 hours): reduced levels of IG

SMILES: O=S([O-])S(=O)(=O)[O-].[K+].[K+] [potassium metabisulfite]
level of IG compared to control binary mixtures ([1]; 25 C, after 18 hours): reduced levels of IG
initial rate of IG formation [1]: effective at eliminating the fast initial rate of IG formation

SMILES: O=S([O-])S(=O)(=O)[O-].[Na+].[Na+] [sodium metabisulfite]
initial rate of IG formation [1]: effective at eliminating the fast initial rate of IG formation
percentage of IG ([1]; higher concentrations of agent before formulation, removed by dialysis with 20 mM Tris, t=0 h and 24 hours): reduced

SMILES: O=C([O-])CS.[Na+] [sodium thioglycolate]
level of IG compared to control binary mixtures ([1]; 25 C, after 18 hours): reduced levels of IG

SMILES: O=S([O-])([O-])=S.[Na+].[Na+] [sodium thiosulfate]
level of IG compared to control binary mixtures ([1]; 25 C, after 18 hours): reduced levels of IG

More lines, main results first:

level of IG compared to control binary mixtures ([1]; 25 C, after 18 hours): reduced levels of IG
SMILES: O=C(O)CCCC[C@@H]1CCSS1 (racemic) [lipoic acid]

level of IG compared to control binary mixtures ([1]; 25 C, after 18 hours): reduced levels of IG
SMILES: O[C@H](CS)[C@H](O)CS [DTT, dithiothreitol]

level of IG compared to control binary mixtures ([1]; 25 C, after 18 hours): reduced levels of IG
SMILES: CC(=O)N[C@@H](CS)C(=O)O [N-acetyl cysteine]
initial rate of IG formation [1]: effective at eliminating the fast initial rate of IG formation

level of IG compared to control binary mixtures ([1]; 25 C, after 18 hours): reduced levels of IG
SMILES: NCCSSCCN [cystamine]

level of IG compared to control binary mixtures ([1]; 25 C, after 18 hours): reduced levels of IG
SMILES: N[C@@H](CCC(=O)N[C@@H](CS)C(=O)NCC(=O)O)C(=O)O [glutathione]

level of IG compared to control binary mixtures ([1]; 25 C, after 18 hours): reduced levels of IG
SMILES: N[C@@H](CCS)C(=O)O [homo cysteine, homocysteine]

level of IG compared to control binary mixtures ([1]; 25 C, after 18 hours): reduced levels of IG
SMILES: [BH4-].[Na+] [sodium borohydrate]
